Source: patent US20040197268A1, “Method of imaging amyloid deposits using substituted rhodanine derivatives” (priority 1999, published 2004)
“And” between values parts separate entries of the source, which are not always exact repeats. Equal entries are not always repeated. Structures can show the parent of a compound that is named as a salt.

What was measured:
[1] = target: T1, beta amyloid peptide Aβ(1-40) (Homo sapiens, UniProt P05067); assay: BAPA (Beta-Amyloid Peptide Aggregation), pH 6.0; type: biochemical; settings: Aβ(1-40) 33 μM, pH 6.0, 2 to 4 hours at room temperature, filtration
T1 construct: 0.5 mg/mL AP (140) peptide in 20% HFIP+0.1 μL/assay radioiodinated ^125I Aβ(1-40)
Description: BAPA (Beta-Amyloid Peptide Aggregation)
This assay is used to provide a measure of inhibition by a compound against the aggregation behavior of the beta amyloid peptide.
The purpose of this assay is to provide a higher volume method of assaying the amount of beta amyloid aggregation using an endpoint assay based on filtration. In this assay, hexafluoroisopropanol (HFIP) is used to break down the initial amyloid peptide to a monomer state and use a concentration of 33 μM which is high enough so that aggregation will occur at pH 6.0 in several hours.
β-Amyloid Peptide Aggregation, pH 6.0 (BAPA)
In a 96-well plate (Costar 3794), we add […] 50 mM Phosphate Buffer, pH 6.0, 10 μL 0.5 mg/mL AP (140) peptide in 20% HFIP+0.1 μL/assay radioiodinated ^125I Aβ(1-40) [^125I Aβ(1-40)], and 1 μL of the compound to be tested starting at 50 mM with a concentration of DMSO <1%. Then, we incubate for 2 to 4 hours at room temperature. We stop the reaction with […] of 50 mM phosphate buffer, pH 6.0, and filter it through a 0.2 μm 96-well filter plate (Millipore MAGU N22). We wash the filter plate with 100 μL of the same phosphate buffer. Aggregation was detected on a Microbeta counter after impregnating the filters with Meltilex (1450-441) and is corrected for background.

Aβ(1-40) [2] = target: T2, Aβ(1-40) (Homo sapiens, UniProt P05067); assay: BASST (Beta-Amyloid Self-Seeding, ThioflavinT), inhibitors of self-seeded amyloid fibril growth; type: biochemical; settings: 30 μM soluble Aβ(1-40), pH 7.5, 37° C., 3 to 5 hours, thioflavin T fluorescence
T2 construct: Soluble Aβ(1-40) peptide (Bachem, Torrance, Calif.); purchased Bachem, Torrance, Calif
Description: BASST (Beta-Amyloid Self-Seeding, ThioflavinT)
(§1) An assay for inhibitors of self-seeded amyloid fibril growth
Assay Buffer—50 mM sodium phosphate, pH 7.5, 100 mM NaCl, 0.02% NaN3, 1 M urea (filter and store at 4° C.).
Soluble Aβ(1-40)—2.2 mg/mL in deionized H2O (store in aliquots at −20° C., keep on ice when thawed) will self-seed after 1 week storage. Typically, the solution should be stored until no lag phase is seen in the assay.
Final assay conditions: 30 μM soluble Aβ(1-40) in deionized water in assay buffer. Compound to be tested is dissolved in DMSO, typically 5-50 mM stock, such that the final concentration of DMSO is <1% v/v in the assay.
Assay: Reaction mixture for 50 assays (on ice) comprised of 1 μL of soluble Aβ(1-40)+13.5 μL assay buffer per assay. The following are the amounts of the components of the reaction mixture that result in each of the 50 assay wells.
1) Prepare the reaction mix above by mixing the components and storing on ice.
2) Pipet […] of reaction mixture into each of 50 wells of a polystyrene U-bottom 96-well microtiter plate (Corning 25881-96) on ice.
(§2) 3) Add 1.7 mL of diluted compound to be tested to each well in a column of eight, including solvent control. Serial 3-fold dilutions from 1 mM (100 μM final) in assay buffer−urea=7 dilutions+zero. Each 96-well plate can therefore accommodate 11 samples+1 Congo Red control (0.039-5 μM final in 2-fold steps).
4) Seal the plate with aluminum film and incubate for 10 minutes on ice.
5) Raise the temperature to 37° C. and incubate for 3 to 5 hours (depends on the lot of the peptide).
6) Remove the aluminum film and add 250 μL/well of 5 μM thioflavin T (ThT) [T-3516, Sigma-Aldrich] in 50 mM glycine-NaOH, pH 8.5. Read fluorescence on a plate reader (ex=440 nm/20 nm; em=485 nm/20 nm) within 5 minutes.

Aβ(1-42) = target: T3, Aβ(1-42) (Homo sapiens, UniProt P05067); assay: BATYM Assay (Aβ(1-42) aggregation, Thioflavin T fluorescence); type: biochemical; settings: Aβ 1-42 final concentration 100 μM, PBS pH 7.4, 37° C., 1 day, ThT fluorescence
T3 construct: Required Aβ(1-42)(California Peptide) was dried from its hexafluoroisopropanol (HFIP) stock solution; purchased California Peptide
Description: Required Aβ(1-42)(California Peptide) was dried from its hexafluoroisopropanol (HFIP) stock solution. The Aβ(1-42) was dissolved in dimethylsulfoxide (DMSO) and then mixed with phosphate buffered saline, (PBS) (pH 7.4). The mixed Aβ(1-42) solution was filtered with a 0.2 μm Omnipore membrane syringe filter (Millipore, Bedford, Mass.). The compound to be tested in DMSO (50 times concentrate) was put into each well (0.5 μL/well) of a 96-well plate. The Aβ(1-42) solution was added into each well (24.5 μL/well). The plate was centrifuged at 1,000 g for 5 minutes and incubated at 37° C. for 1 day (Aβ 1-42; final concentration 100 μM).
After incubation Thioflavin T (ThT) (30 μM) solution in glycine-NaOH buffer (pH 8.5, 50 mM) was added into each well (250 μL/well), fluorescence was measured (ex. 440/20 nm; em 485/20 nm) using a fluorescence plate reader. The inhibitory activity was calculated as the reduction of fluorescence with the following formula:
inhibition (%)={(F(Aβ)−F(Aβ+compound)}/{F(Aβ)−F(solvent+compound)}×100
The IC50s were calculated by a curve fitting program using the following equation. The data were obtained from two different experiments in triplicate.
x=concentration of tested compound (M),

Aβ(1-40) [3] = target: T2, Aβ(1-40); assay: BASSR (Beta-Amyloid Self-Seeding Radioassay), inhibitors of self-seeded amyloid fibril growth; type: biochemical; settings: 30 μM soluble Aβ(1-40) + 125I-labeled Aβ(1-40), pH 7.5, 37° C., 3 to 5 hours, filtration
Description: BASSR (Beta-Amyloid Self-Seeding Radioassay)
as §1
Assay Buffer—50 mM sodium phosphate, pH 7.5, 100 mM NaCl, 0.02% NaN3, 1 M urea (filter and store at 4° C.)
Soluble Aβ(1-40) peptide (Bachem, Torrance, Calif.)—2.2 mg/mL in deionized H2O (stored in aliquots at −20° C., keep on ice when thawed) will self-seed after 1 week storage. Typically, the solution should be stored until no lag phase is seen in the assay.
^125I-labeled Aβ(1-40)—150K-350K cpm/μL in 100% acetonitrile—0.1% trifluoroacetic acid (TFA)—1% β-mercaptoethanol (aliquots stored at −20° C.). ^125I-labeled Aβ(1-40) can be made in accordance with the procedure set forth by H. Levine, III in Neurobiol. Aging, 16:755 (1995), which is hereby incorporated by reference, or this reagent may be purchased from Amersham, Arlington Heights, Ill.
Final assay conditions: 30 μM soluble Aβ(1-40) in deionized water in assay buffer+20-50K cpm ^125I-labeled Aβ(1-40) per assay. Compound to be tested is dissolved in dimethylsulfoxide (DMSO), typically 5-50 mM stock, such that the final concentration of DMSO is <1% v/v in the assay.
Assay: Reaction mixture for 50 assays (on ice) is comprised of 0.1-0.2 μL of […] ^125I-labeled Aβ(1-40)+1 μL of soluble Aβ(1-40)+13.5 μL assay buffer per assay. The following are the amounts of the components of the reaction mixture sufficient for 50 assay wells.
1) Prepare reaction mixture above by mixing components and storing on ice.
2) Pipet 14.5 μL of reaction mixture into each of 50 wells on a polypropylene U-bottom 96-well microtiter plate on ice (Costar 3794).
as §2, with “μL” for “mL”
4) Seal the plate with aluminum film (Beckman 538619) and incubate for 10 minutes on ice.
5) Raise the temperature to 37° C. and incubate for 3 to 5 hours (depending on the lot of the peptide).
6) Remove the aluminum film and add 200 μL/well of ice cold assay buffer with urea, collecting the radiolabeled fibrils by vacuum filtration through 0.2 μm pore size GVWP filters in 96-well plates (Millipore MAGV N22, Bedford, Mass.). Determine the radioactivity of the filters using standard methods well-known to those skilled in the art.

T3 sequence (P05067 672-713 limits assumed): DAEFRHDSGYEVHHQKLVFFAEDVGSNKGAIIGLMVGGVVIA
T2 sequence (P05067 672-711 limits assumed): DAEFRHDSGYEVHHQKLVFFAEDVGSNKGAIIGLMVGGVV
T1 sequence (P05067 672-711 limits assumed): as above

| Molecule | IC50 [1] [µM] | IC50 (Aβ(1-40) [2]) | melting point [°C] | IC50 (Aβ(1-42)) [µM] | IC50 (Aβ(1-40) [3]) |
| --- | --- | --- | --- | --- | --- |
| CCCCCCN(C)c1ccc(/C=C2\SC(=S)N(CC(=O)NS(=O)(=O)C(F)(F)F)C2=O)cc1 [Example 7, (Z) C,C,C-Trifluoro-N-({5-[4-(hexyl-methyl-amino)-benzylidene]4-oxo-2-thioxo-thiazolidin-3-yl}-acetyl)methanesulfonamide] | 70 | 0.4 µM | 94 to 97 | 1.7 | 1 µM |
| O=C(CN1C(=O)/C(=C/c2ccc(N3CC[C@@H]4CCCC[C@H]4C3)cc2)SC1=S)NS(=O)(=O)c1ccccc1 [Example 24, (Z) N-(2-{5-[(4aS,8aR)-4(Octahydro-isoquinolin-2-yl)benzylidene]-4-oxo-2-thioxo-thiazolidin-3-yl}-acetyl)-benzenesulfonamide] | – | 1 µM and 0.8 µM | 222 | 3.84 | 6.5 µM and 10 µM and 6 µM |
| CCCCN(CCCC)c1ccc(/C=C2\SC(=S)N(CC(=O)NS(C)(=O)=O)C2=O)cc1 [Example 21, (Z) N-{2-[5-(4-Dibutylamino-benzylidene)-4-oxo-2-thioxo-thiazolidin-3-yl]-acetyl}-methanesulfonamide] | > 100 | – | 219 to 222 | 2.91 | > 100 µM |
| O=C1/C(=C/c2ccc(N3CCC4CCCCC4C3)cc2)SC(=S)N1Cc1cc(=O)c(O)co1 (stereo not drawn) [Example 32, (Z) 3-(5-Hydroxy-4-oxo-4H-pyran-2-ylmethyl)-5-[4-(octahydro-isoquinolin-2-yl)benzylidene]-2-thioxo-thiazolidin-4-one] | 46 | 1 µM | – | 2.55 | > 100 µM |
| (Z) 2-[5-(4-Hexyl-methyl-amino-benzylidene)-4-oxo-2-thioxo-thiazolidin-3-yl]-ethanesulfonic acid 4-fluoro-benzoylamide [Example 40] | – | – | – | 2.84 | – |
| CCCCN(CCCC)c1ccc(/C=C2\SC(=S)N(CCS(=O)(=O)NC(=O)c3ccc(F)cc3)C2=O)cc1 [Example 26, (Z) 2-[5-(4-Dibutylamino-benzytidene)-4-oxo-2-thioxo-thiazolidin-3-yl]-ethanesulfonic acid 4-fluoro-benzoylamide] | – | – | 191 to 192 | 2.14 | 6.1 µM and 10 µM |
| CCCCCCN(C)c1ccc(/C=C2\SC(=S)N(CCS(=O)(=O)O)C2=O)cc1 [Example 1, (Z) 2-{5[4-(Hexyl-methyl-amino)benzylidene] 4-oxo-2-thioxo-thiazolidin-3-yl}-ethanesulfonic acid] | 23 | 1 µM | – | 1.72 | > 100 µM |
| CCCC1CCN(c2ccc(/C=C3\SC(=S)N(Cc4nnn[nH]4)C3=O)cc2)CC1 [Example 35] | > 60 | 0.4 µM | – | 3.31 | 15 µM |
| CCCCCCN(C)c1ccc(/C=C2\SC(=S)N(CCS(=O)(=O)O)C2=O)cc1 (as salt: sodium) [Example 1, (Z) 2-{5[4-(Hexyl-methyl-amino)benzylidene] 4-oxo-2-thioxo-thiazolidin-3-yl}-ethanesulfonic acid] | – | – | > 250 | – | – |
| CCCCN(CCCC)c1ccc(/C=C2\SC(=S)N(CC(=O)NS(=O)(=O)c3ccc(F)cc3)C2=O)cc1 [Example 25, (Z) N-{2-[5-(4-Dibutylamino-benzylidene)-4-oxo-2-thioxo-thiazolidin-3-yl]-acetyl}-4-fluoro-benzenesulfonamide] | – | 0.6 µM and 0.5 µM | 125 | 2.38 | 6 µM |
| CCCCN(CCCC)c1ccc(/C=C2\SC(=S)N(Cc3nnn[nH]3)C2=O)cc1 [Example 20, (Z) 5-(4-Dibutylamino-benzylidene)-3(H-tetrazol-5-ylmethyl)-2-thioxo-thiazolidin-4-one] | > 100 | 2 µM | – | 2.04 | – |
| CCCCCCN(C)c1ccc(/C=C2\SC(=S)N(CS(=O)(=O)O)C2=O)cc1 [Example 15, (Z) {5-[4-(n-Hexylmethylamine)-benzylidene]-4-oxo-2-thioxo-thiazolidin-3-yl}-methanesulfonic acid] | 8 | > 100 µM | – | 3.39 | > 100 µM |
| CCCCCCN(C)c1ccc(/C=C2\SC(=S)N(CCNC(C)=O)C2=O)cc1 [Example 14] | 30 | 0.22 µM | – | > 100 | > 100 µM |
